Results published in patent publication US7709471B2, “Compounds” (AstraZeneca AB, priority 2006, dated 2010).

molecular target: recombinant Plk1 (Homo sapiens, UniProt P53350); assay: In Vitro Plk1 Enzyme Assay (SPA, GST-Cdc25C phosphorylation); type: biochemical; settings: ATP 64 nM, 90 minutes, read-out: IC50 (Plk1 enzyme inhibition)
Sequence (P53350 whole entry): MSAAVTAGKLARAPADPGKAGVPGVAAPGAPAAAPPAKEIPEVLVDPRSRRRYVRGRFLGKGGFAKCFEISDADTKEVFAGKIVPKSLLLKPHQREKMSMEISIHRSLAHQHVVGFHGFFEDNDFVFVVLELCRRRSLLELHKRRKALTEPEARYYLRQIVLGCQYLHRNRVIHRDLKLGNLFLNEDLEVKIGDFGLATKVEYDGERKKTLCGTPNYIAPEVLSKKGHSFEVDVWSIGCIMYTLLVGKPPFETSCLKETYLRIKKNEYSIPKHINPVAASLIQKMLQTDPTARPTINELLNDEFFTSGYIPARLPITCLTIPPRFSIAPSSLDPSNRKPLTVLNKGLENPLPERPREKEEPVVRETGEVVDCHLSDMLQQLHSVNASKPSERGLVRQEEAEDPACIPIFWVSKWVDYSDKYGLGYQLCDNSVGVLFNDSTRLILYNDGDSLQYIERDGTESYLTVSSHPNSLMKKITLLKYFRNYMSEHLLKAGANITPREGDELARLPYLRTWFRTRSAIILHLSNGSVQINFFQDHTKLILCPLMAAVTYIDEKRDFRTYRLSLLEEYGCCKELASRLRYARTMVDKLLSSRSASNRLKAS

| Molecule | IC50 [µM] |
| --- | --- |
| CN1C(=O)CCN(C2CCCC2)c2nc(Nc3ccccc3S(C)(=O)=O)ncc21 [Example 149, 6-cyclopentyl-2-methyl-9-[(2-methylsulfonylphenyl)amino]-2,6,8,10-tetrazabicyclo[5.4.0]undeca-8,10,12-trien-3-one] | < 100 |
| CC(C)NC(=O)c1ccc(Nc2ncc3c(n2)N(C2CCCC2)CCC(=O)N3C)cc1 [Example 100, 4-[(6-cyclopentyl-2-methyl-3-oxo-2,6,8,10-tetrazabicyclo[5.4.0]undeca-8,10,12-trien-9-yl)amino]-N-propan-2-yl-benzamide] | < 0.3 |
| CN1C(=O)CCN(C2CCCC2)c2nc(Nc3ccc(N4CCOCC4)cc3)ncc21 [Example 121, 6-cyclopentyl-2-methyl-9-[(4-morpholin-4-ylphenyl)amino]-2,6,8,10-tetrazabicyclo[5.4.0]undeca-8,10,12-trien-3-one] | < 100 |
| COc1cc(C(=O)NC2CCN(C)CC2)ccc1Nc1ncc2c(n1)N(C1CCOCC1)CCC(=O)N2C [Example 9, 3-Methoxy-4-[[6-methyl-2-(oxan-4-yl)-5-oxo-2,6,9,11-tetrazabicyclo[5.4.0]undeca-7,9,11-trien-10-yl]amino]-N-(1-methyl-4-piperidyl)benzamide] | < 0.3 |
| 6-cyclopentyl-2-methyl-9-[(2,4,6-trimethoxyphenyl)amino]-2,6,8,10-tetrazabicyclo[5.4.0]undeca-8,10,12-trien-3-one [Example 112] | < 1 |
| COc1cc(C(=O)NCCN2CCCCC2)ccc1Nc1ncc2c(n1)N(C1CCCC1)CCC(=O)N2C [Example 12, 4-[(6-cyclopentyl-2-methyl-3-oxo-2,6,8,10-tetrazabicyclo[5.4.0]undeca-8,10,12-trien-9-yl)amino]-3-methoxy-N-[2-(1-piperidyl)ethyl]benzamide] | < 1 |

Next, values leading:

| IC50 [µM] | Molecule |
| --- | --- |
| < 100 | CCCC1CN(C2CCCC2)c2nc(Nc3ccc(C(=O)NC4CCN(C)CC4)cc3OC)ncc2N(C)C1=O (single isomer, unassigned) [Example 239] |
| < 1 | CCN1C(=O)CCN(C2CCCC2)c2nc(Nc3ccc(C(=O)NC4CCN(C)CC4)cc3OC)ncc21 [Example 259, 4-[(6-cyclopentyl-2-ethyl-3-oxo-2,6,8,10-tetrazabicyclo[5.4.0]undeca-8,10,12-trien-9-yl)amino]-3-methoxy-N-(1-methyl-4-piperidyl)benzamide] |
| < 1 | CNC(=O)c1ccc(Nc2ncc3c(n2)N(C2CCCC2)CCC(=O)N3C)c(OCCOC)c1 [Example 196, 4-[(6-cyclopentyl-2-methyl-3-oxo-2,6,8,10-tetrazabicyclo[5.4.0]undeca-8,10,12-trien-9-yl)amino]-3-(2-methoxyethoxy)-N-methyl-benzamide] |
| < 100 | CCCCc1ccccc1Nc1ncc2c(n1)N(C1CCCC1)CCC(=O)N2C [Example 151, 9-[(2-butylphenyl)amino]-6-cyclopentyl-2-methyl-2,6,8,10-tetrazabicyclo[5.4.0]undeca-8,10,12-trien-3-one] |
| < 100 | COc1cc(C(=O)NC2CCN(C)CC2)ccc1Nc1ncc2c(n1)N(Cc1c(C)noc1C)CCC(=O)N2C [Example 273, 4-[[2-[(3,5-dimethyl-1,2-oxazol-4-yl)methyl]-6-methyl-5-oxo-2,6,9,11-tetrazabicyclo[5.4.0]undeca-7,9,11-trien-10-yl]amino]-3-methoxy-N-(1-methyl-4-piperidyl)benzamide] |
| < 0.3 | COc1cc(C(=O)NC2CCN(C)CC2)ccc1Nc1ncc2c(n1)N(CC(C)C)CCC(=O)N2C [Example 211, 3-methoxy-4-[[2-methyl-6-(2-methylpropyl)-3-oxo-2,6,8,10-tetrazabicyclo[5.4.0]undeca-7,9,11-trien-9-yl]amino]-N-(1-methyl-4-piperidyl)benzamide] |
| < 100 | COCC(C)N1CCC(=O)Nc2cnc(Nc3ccc(C(=O)NC4CCN(C)CC4)cc3OC)nc21 (stereo not shown) [Example 258, 3-methoxy-4-[[6-(1-methoxypropan-2-yl)-3-oxo-2,6,8,10-tetrazabicyclo[5.4.0]undeca-7,9,11-trien-9-yl]amino]-N-(1-methyl-4-piperidyl)benzamide] |
